Measured values from patent US20030229053A1, “Compounds and methods for the treatment or prevention of flavivirus infections” (Shire BioChem Inc., priority 2001, published 2003).
Read-outs that look alike come from different tables or passages of the source.

Target: HCV NS5B RNA-dependent RNA polymerase (Hepatitis C virus genotype 1b, UniProt P26663)
Test: In vitro RNA-dependent RNA polymerase assay (Assay 1), polyA/oligo dT, TCA precipitation
Assay type: biochemical
Description: Purification of Recombinant NS5B Using Fast Protein Liquid Chromatography (FPLC):
Soluble NS5B protein in the S3 fraction was diluted to lower the NaCl concentration to 300 mM, then it incubated batchwise with DEAE sepharose beads (Amersham-Pharmacia) for 2 hrs at 4° C., as described by Behrens et al. (1996). Unbound material was cleared by centrifugation for 15 min at 4° C., at 25,000 rpm using a SW41 rotor (Beckman). The supernatant was further diluted to lower the NaCl concentration to 200 mM and subsequently loaded, with a flow rate of 1 ml/min, on a 5 ml HiTrap® heparin column (Amersham-Pharmacia) connected to an FPLC® system (Amersham-Pharmacia). Bound proteins were eluted in 1 ml fractions, using a continuous NaCl gradient of 0.2 to 1 M, over a 25 ml volume. NS5B-containing fractions were identified by sodium dodecyl sulfate polyacrylamide gel electrophoresis (SDS-PAGE), followed by western blotting using the anti-NS5B antiserum at a dilution of 1:2000. Positive fractions were pooled and the elution buffer was exchanged against a 50 mM NaPO4 pH 7.0, 20% glycerol, 0.5% triton X-100 and 10 mM DTT, using a PD-10 column (Amersham-Pharmacia). The sample was then loaded onto a 1 ml HiTrap® SP column (Amersham-Pharmacia), with a flow rate of 0.1 ml/min. Bound proteins were eluted using a continuous 0 to 1 M NaCl gradient over a 15 ml volume. Eluted fractions were analyzed by SDS-PAGE and western blotting. Alternatively, proteins were visualized, following SDS-PAGE, by silver staining using the Silver Stain Plus kit (BioRad) as described by the manufacturer. […]
In vitro RNA-dependent RNA Polymerase Assays Used to Evaluate Biaryl Analogues (Assay 1):
RdRp assays were conducted using the homopolymeric template/primer polyA/oligo dT. All RdRp reactions were performed in a total volume of 50 μl, and in a basic buffer consisting of 20 mM Tris-HCl pH 7.5, 1 mM DTT, 50 mM NaCl, 5 mM MgCl2, 0.5 μCi […] (3000 Ci/mmol), 15 μM cold UTP and 20 U RNasin (Promega). Standard HCV RdRp reactions contained 200 ng of purified NS5B protein. PolyA RNAs (Amersham-Pharmacia) was resuspended at 400 ng/μl. The primer oligodT15 (Canadian life technologies) was diluted to a concentration of […] (7.6 ng/μl). Templates and primers were mixed volume to volume, denatured at 95° C. for 5 min and annealed at 37° C. for 10 min. Following a two hour incubation at 22° C., reactions were stopped by the addition of 100 μg of sonicated salmon sperm DNA (Life Technologies) and 1 ml of 10% trichloroacetic acid-0.5% tetrasodium pyrophosphate (TCA-PPi). Nucleic acids were precipitated at 4° C. for 30 min after which samples were filtered on GF/C glass microfiber filters (Millipore). Membranes were subsequently washed with 25 ml of a 1% TCA-0.1% PPi solution, then air dried. Incorporated radioactivity was quantified using a liquid scintillation counter (1450-Microbeta, Wallac). Results are shown in Table 1, in the column indicated as Assay 1.

[1] = polyA/oligo dT template/primer, 200 ng NS5B, 2 h at 22° C., read-out: RNA pol Assay 1 IC50 (μm)

Sequence of HCV NS5B RNA-dependent RNA polymerase (P26663 2420-3010 limits assumed): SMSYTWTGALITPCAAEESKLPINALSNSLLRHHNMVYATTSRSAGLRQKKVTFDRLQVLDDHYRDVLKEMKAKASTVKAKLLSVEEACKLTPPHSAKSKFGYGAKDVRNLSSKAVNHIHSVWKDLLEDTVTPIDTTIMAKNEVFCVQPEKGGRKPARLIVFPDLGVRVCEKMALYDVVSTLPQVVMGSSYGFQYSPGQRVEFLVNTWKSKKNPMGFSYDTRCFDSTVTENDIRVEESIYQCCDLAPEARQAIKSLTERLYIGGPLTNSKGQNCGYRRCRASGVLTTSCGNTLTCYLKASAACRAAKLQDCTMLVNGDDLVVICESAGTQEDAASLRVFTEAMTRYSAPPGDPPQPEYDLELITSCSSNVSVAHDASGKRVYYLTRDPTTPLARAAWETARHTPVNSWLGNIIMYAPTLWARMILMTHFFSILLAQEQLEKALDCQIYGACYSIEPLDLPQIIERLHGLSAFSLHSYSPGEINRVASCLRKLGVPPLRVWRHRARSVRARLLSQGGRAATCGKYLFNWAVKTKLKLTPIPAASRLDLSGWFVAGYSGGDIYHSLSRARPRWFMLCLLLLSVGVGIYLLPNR

IC50 [1] [µM]	SMILES	IC50 [µM]
< 5	COc1cc(C)c(S(=O)(=O)N(Cc2ccc(-c3cc4ccccc4o3)cc2)[C@@H](Cc2ccc(O)cc2)C(=O)O)c(C)c1C [compound #32, (2s)-2-[(4-Benzofuran-2-yl-benzyl)-(4-methoxy-2,3,6-trimethyl-benzenesulfonyl)-amino]-3-(4-hydroxy-phenyl)-propionic acid]	–
< 5	O=C(O)[C@H](Cc1ccc(O)cc1)N(Cc1ccc(-c2cc3ccccc3o2)cc1)C(=O)c1ccc(Cl)cc1Cl [compound #33, (2s)-2-[(4-Benzofuran-2-yl-benzyl)-(2,4-dichloro-benzoyl)-amino]-3-(4-hydroxy-phenyl)-propionic acid]	–
< 5	Cc1cc(Cl)ccc1C(=O)N(Cc1cccc(Br)c1)[C@@H](Cc1ccccc1)C(=O)O [compound #34, (2s)-2-[(3-Bromo-benzyl)-(4-chloro-2-methyl-benzoyl)-amino]-3-phenyl-propionic acid]	–
< 5	O=C(O)[C@H](Cc1ccccc1)N(Cc1cccc(Br)c1)C(=O)c1ccc(Cl)cc1I [compound #35, (2s)-2-[(3-Bromo-benzyl)-(4-chloro-2-iodo-benzoyl)-amino]-3-phenyl-propionic acid]	–
–	O=C(O)[C@H](Cc1ccccc1)N(Cc1cccc(Br)c1)C(=O)c1ccc(Cl)cc1Br [compound #36, (2s)-2-[(3-Bromo-benzyl)-(2-bromo-4-chloro-benzoyl)-amino]-3-phenyl-propionic acid]	< 5
< 5	O=C(O)[C@H](Cc1ccccc1)N(Cc1cccc(-c2cc3ccccc3o2)c1)C(=O)Cc1ccc(Cl)cc1Cl [compound #37, (2s)-2-{(3-Benzofuran-2-yl-benzyl)-[(2,4-dichloro-phenyl)-acetyl]-amino}-3-phenyl-propionic acid]	–
< 5	O=C(O)[C@H](Cc1ccccc1)N(Cc1ccc(-c2cc3ccccc3o2)cc1)c1ccc(Cl)cc1Cl [compound #38, (2s)-2-[(4-Benzofuran-2-yl-benzyl)-(2,4-dichloro-phenyl)-amino]-3-phenyl-propionic acid]	–
< 5	O=C(O)[C@H](Cc1ccccc1)N(Cc1ccc2ccccc2c1)C(=O)c1ccc(Cl)cc1Cl [compound #39, (2s)-2-[(2,4-Dichloro-benzoyl)-naphthalen-2-ylmethyl-amino]-3-phenyl-propionic acid]	–
< 5	O=C1c2ccccc2C(=O)c2cc(CN(C(=O)c3ccc(Cl)cc3Cl)[C@@H](Cc3ccccc3)C(=O)O)ccc21 [compound #40, (2s)-2-[(2,4-Dichloro-benzoyl)-(9,10-dioxo-9,10-dihydro-anthracen-2-ylmethyl)-amino]-3-phenyl-propionic acid]	–
< 5	O=C(c1cccc(Cl)c1)c1cccc(CN(C(=O)c2ccc(Cl)cc2Cl)[C@@H](Cc2ccccc2)C(=O)O)c1 [compound #41, (2s)-2-[[3-(3-Chloro-benzoyl)-benzyl]-(2,4-dichloro-benzoyl)-amino]-3-phenyl-propionic acid]	–
< 5	O=C(c1cccc(CN(C(=O)c2ccc(Cl)cc2Cl)[C@@H](Cc2ccccc2)C(=O)O)c1)c1ccc(F)cc1F [compound #42, (2s)-2-{(2,4-Dichloro-benzoyl)-[3-(2,4-difluoro-benzoyl)-benzyl]-amino}-3-phenyl-propionic acid]	–
< 5	Cc1onc(-c2ccccc2Cl)c1C(=O)c1cccc(CN(C(=O)c2ccc(Cl)cc2Cl)[C@@H](Cc2ccccc2)C(=O)O)c1 [compound #43, (2s)-2-[{3-[3-(2-Chloro-phenyl)-5-methyl-isoxazole-4-carbonyl]-benzyl}-(2,4-dichloro-benzoyl)-amino]-3-phenyl-propionic acid]	–
< 5	O=C(c1cccc(CN(C(=O)c2ccc(Cl)cc2Cl)[C@@H](Cc2ccccc2)C(=O)O)c1)c1ccc(Cl)cc1Cl [compound #44, (2s)-2-{(2,4-Dichloro-benzoyl)-[3-(2,4-dichloro-benzoyl)-benzyl]-amino}-3-phenyl-propionic acid]	–
< 5	O=C(O)[C@H](Cc1ccccc1)N(Cc1cccc(-c2nc3ccccc3o2)c1)C(=O)c1ccc(Cl)cc1Cl [compound #45, (2s)-2-[(3-Benzooxazol-2-yl-benzyl)-(2,4-dichloro-benzoyl)-amino]-3-phenyl-propionic acid]	–
< 5	CCc1cc(Cl)ccc1C(=O)N(Cc1cccc(Br)c1)[C@@H](Cc1ccccc1)C(=O)O [compound #46, (2s)-2-[(3-Bromo-benzyl)-(4-chloro-2-ethyl-benzoyl)-amino]-3-phenyl-propionic acid]	–
< 5	O=C(O)[C@H](CC1CCCCC1)N(Cc1ccc(-c2cc3ccccc3o2)cc1)C(=O)c1ccc(Cl)cc1Cl [compound #47, (2s)-2-[(4-Benzofuran-2-yl-benzyl)-(2,4-dichloro-benzoyl)-amino]-3-cyclohexyl-propionic acid]	–
–	Cc1cc(Cl)ccc1C(=O)N(Cc1cccc(-c2cc3ccccc3o2)c1)[C@@H](Cc1ccccc1)C(=O)O [compound #48, (2s)-2-[(3-Benzofuran-2-yl-benzyl)-(4-chloro-2-methyl-benzoyl)-amino]-3-phenyl-propionic acid]	< 5
< 5	O=C(O)[C@H](Cc1ccccc1)N(Cc1cccc(-c2cc3ccccc3o2)c1)C(=O)c1ccc(Cl)cc1Br [compound #49, (2s)-2-[(3-Benzofuran-2-yl-benzyl)-(2-bromo-4-chloro-benzoyl)-amino]-3-phenyl-propionic acid]	–
< 5	C=Cc1cc(Cl)ccc1C(=O)N(Cc1cccc(Br)c1)[C@@H](Cc1ccccc1)C(=O)O [compound #50, (2s)-2-[(3-Bromo-benzyl)-(4-chloro-2-vinyl-benzoyl)-amino]-3-phenyl-propionic acid]	–
–	O=C(O)[C@H](Cc1ccccc1)N(Cc1cccc(F)c1)C(=O)c1ccc(Cl)cc1Cl [compound #51, (2s)-2-[(2,4-Dichloro-benzoyl)-(3-fluoro-benzyl)-amino]-3-phenyl-propionic acid]	< 5
< 5	O=C(O)[C@H](Cc1ccccc1)N(Cc1cccc(Cl)c1)C(=O)c1ccc(Cl)cc1Cl [compound #52, (2s)-2-[(3-Chloro-benzyl)-(2,4-dichloro-benzoyl)-amino]-3-phenyl-propionic acid]	–
5 to 20	O=C(O)[C@H](Cc1ccccc1)N(Cc1ccc(-c2cccc(Cl)c2)o1)C(=O)c1ccccc1Cl [compound #55, (2s)-2-{(2-Chloro-benzoyl)-[5-(3-chloro-phenyl)-furan-2-ylmethyl]-amino}-3-phenyl-propionic acid]	–
< 5	O=C(O)[C@H](Cc1ccccc1)N(Cc1ccc(-c2cccc(C(F)(F)F)c2)o1)C(=O)c1ccc(Cl)cc1Cl [compound #56, (2s)-2-{(2,4-Dichloro-benzoyl)-[5-(3-trifluoromethyl-phenyl)-furan-2-ylmethyl]-amino}-3-phenyl-propionic acid]	–
5 to 20	O=C(O)[C@H](Cc1ccccc1)N(Cc1ccc(Br)o1)C(=O)c1ccc(Cl)cc1Cl [compound #57, (2s)-2-[(5-Bromo-furan-2-ylmethyl)-(2,4-dichloro-benzoyl)-amino]-3-phenyl-propionic acid]	–
< 5	O=C(O)[C@H](Cc1ccccc1)N(Cc1ccc(-c2cc3ccccc3o2)o1)C(=O)c1ccc(Cl)cc1Cl [compound #58, (2s)-2-[(5-Benzofuran-2-yl-furan-2-ylmethyl)-(2,4-dichloro-benzoyl)-amino]-3-phenyl-propionic acid]	–
< 5	O=C(O)[C@H](Cc1ccccc1)N(Cc1ccc(-c2ccc(Br)cc2)o1)C(=O)c1ccc(Cl)cc1Cl [compound #59, (2s)-2-[[5-(4-Bromo-phenyl)-furan-2-ylmethyl]-(2,4-dichloro-benzoyl)-amino]-3-phenyl-propionic acid]	–
< 5	O=C(O)[C@H](Cc1ccccc1)N(Cc1ccc(-c2ccccc2Cl)o1)C(=O)c1ccc(Cl)cc1Cl [compound #60, (2s)-2-[[5-(2-Chloro-phenyl)-furan-2-ylmethyl]-(2,4-dichloro-benzoyl)-amino]-3-phenyl-propionic acid]	–
